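96-well plates; 48 h exposure; 5 concentrations. Endpoints by linear interpolation between flanking doses. Not reached: highest tested concentration assigned. GI50 = concentration required for 50% inhibition of growth. TGI denotes the concentration required for complete inhibition of growth.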
How the values were obtained:
Test in all cases: inhibition of tumour cell growth, NCI panel, 48 h
A498 renal = tested on: A498 renal
786-0 renal = tested on: 786-0 renal
A549 NSCLC = tested on: A549 NSCLC
OVCAR-8 ovarian = tested on: OVCAR-8 ovarian
OVCAR-5 ovarian = tested on: OVCAR-5 ovarian
SNB-19 CNS = tested on: SNB-19 CNS
SK-OV-3 ovarian = tested on: SK-OV-3 ovarian
SR leukemia = tested on: SR leukemia
IGROV1 ovarian = tested on: IGROV1 ovarian
OVCAR-3 ovarian = tested on: OVCAR-3 ovarian
LOX IMVI melanoma = tested on: LOX IMVI melanoma
UACC-62 melanoma = tested on: UACC-62 melanoma
RXF 393 renal = tested on: RXF 393 renal
BT-549 breast = tested on: BT-549 breast
HOP-92 NSCLC = tested on: HOP-92 NSCLC
SN12C renal = tested on: SN12C renal
HCC-2998 colon = tested on: HCC-2998 colon
MOLT-4 leukemia = tested on: MOLT-4 leukemia
ACHN renal = tested on: ACHN renal
SF-539 CNS = tested on: SF-539 CNS
EKVX NSCLC = tested on: EKVX NSCLC
UACC-257 melanoma = tested on: UACC-257 melanoma
HCT-15 colon = tested on: HCT-15 colon
CCRF-CEM leukemia = tested on: CCRF-CEM leukemia
SNB-75 CNS = tested on: SNB-75 CNS
UO-31 renal = tested on: UO-31 renal
HCT-116 colon = tested on: HCT-116 colon
KM12 colon = tested on: KM12 colon
TK-10 renal = tested on: TK-10 renal
HT29 colon = tested on: HT29 colon
NCI-H460 lung = tested on: NCI-H460 lung
NCI-H23 lung = tested on: NCI-H23 lung
PC-3 prostate = tested on: PC-3 prostate
SW-620 colon = tested on: SW-620 colon
COLO 205 colon = tested on: COLO 205 colon
T-47D breast = tested on: T-47D breast
SF-268 CNS = tested on: SF-268 CNS
SF-295 CNS = tested on: SF-295 CNS
CAKI-1 renal = tested on: CAKI-1 renal
SK-MEL-5 melanoma = tested on: SK-MEL-5 melanoma
NCI/ADR-RES ovarian = tested on: NCI/ADR-RES ovarian
OVCAR-4 ovarian = tested on: OVCAR-4 ovarian
HL-60(TB) leukemia = tested on: HL-60(TB) leukemia
NCI-H226 lung = tested on: NCI-H226 lung
K-562 leukemia = tested on: K-562 leukemia
DU-145 prostate = tested on: DU-145 prostate
HOP-62 NSCLC = tested on: HOP-62 NSCLC
MCF7 breast = tested on: MCF7 breast
MDA-MB-231 breast = tested on: MDA-MB-231 breast
M14 melanoma = tested on: M14 melanoma
RPMI-8226 leukemia = tested on: RPMI-8226 leukemia
NCI-H522 lung = tested on: NCI-H522 lung
SK-MEL-28 melanoma = tested on: SK-MEL-28 melanoma
SK-MEL-2 melanoma = tested on: SK-MEL-2 melanoma
MDA-MB-435 = tested on: MDA-MB-435
U251 CNS = tested on: U251 CNS
MALME-3M melanoma = tested on: MALME-3M melanoma
HS 578T breast = tested on: HS 578T breast

COc1cc(NN=C(c2ccc(O)cc2)c2ccc(O)cc2)c([N+](=O)[O-])cc1[N+](=O)[O-] gave a GI50 (A498 renal) of 13.2 µM, a TGI (A498 renal) of 35.2 µM and a GI50 (786-0 renal) of 11.7 µM. For the same molecule, the TGI (786-0 renal) was 24.8 µM, the GI50 (A549 NSCLC) was 7.59 µM and the TGI (A549 NSCLC) was 33.7 µM. The GI50 (OVCAR-8 ovarian) was 4.91 µM, the TGI (OVCAR-8 ovarian) was 27.5 µM and the GI50 (OVCAR-5 ovarian) was 18.8 µM. The TGI (OVCAR-5 ovarian) was 40.1 µM, the GI50 (SNB-19 CNS) was 10.7 µM and the TGI (SNB-19 CNS) was 23.3 µM. For the same molecule, the GI50 (SK-OV-3 ovarian) was 16.6 µM, the TGI (SK-OV-3 ovarian) was 30.2 µM and the GI50 (SR leukemia) was 10.9 µM. For the same molecule, the TGI (SR leukemia) was > 100 µM, the GI50 (IGROV1 ovarian) was 12.7 µM and the TGI (IGROV1 ovarian) was 32.8 µM. The GI50 (OVCAR-3 ovarian) was 1.21 µM, the TGI (OVCAR-3 ovarian) was 14.8 µM and the GI50 (LOX IMVI melanoma) was 3.76 µM. The TGI (LOX IMVI melanoma) was 18.6 µM, the GI50 (UACC-62 melanoma) was 10.6 µM and the TGI (UACC-62 melanoma) was 22.6 µM. For the same molecule, the GI50 (RXF 393 renal) was 8.05 µM, the TGI (RXF 393 renal) was 22.9 µM and the GI50 (BT-549 breast) was 14 µM. It also gave a TGI (BT-549 breast) of 30.2 µM, a GI50 (HOP-92 NSCLC) of 12.1 µM and a TGI (HOP-92 NSCLC) of 31.6 µM. It also gave a GI50 (SN12C renal) of 11.2 µM, a TGI (SN12C renal) of 23.3 µM and a GI50 (HCC-2998 colon) of 14.8 µM. The TGI (HCC-2998 colon) was 29.8 µM, the GI50 (MOLT-4 leukemia) was 6.52 µM and the TGI (MOLT-4 leukemia) was > 100 µM. It also gave a GI50 (ACHN renal) of 5.23 µM, a TGI (ACHN renal) of 20.3 µM and a GI50 (SF-539 CNS) of 13 µM. It also gave a TGI (SF-539 CNS) of 27.7 µM, a GI50 (EKVX NSCLC) of 14.4 µM and a TGI (EKVX NSCLC) of 28.3 µM. It also gave a GI50 (UACC-257 melanoma) of 15.5 µM, a TGI (UACC-257 melanoma) of 29.3 µM and a GI50 (HCT-15 colon) of 5.75 µM. For the same molecule, the TGI (HCT-15 colon) was 20.1 µM, the GI50 (CCRF-CEM leukemia) was 1.37 µM and the TGI (CCRF-CEM leukemia) was > 100 µM. For the same molecule, the GI50 (SNB-75 CNS) was 14.7 µM, the TGI (SNB-75 CNS) was 29.6 µM and the GI50 (UO-31 renal) was 10.4 µM. For the same molecule, the TGI (UO-31 renal) was 23.9 µM, the GI50 (HCT-116 colon) was 9.33 µM and the TGI (HCT-116 colon) was 21.8 µM. For the same molecule, the GI50 (KM12 colon) was 4.86 µM, the TGI (KM12 colon) was 25.7 µM and the GI50 (TK-10 renal) was 4.69 µM. It also gave a TGI (TK-10 renal) of 19.9 µM, a GI50 (HT29 colon) of 10.9 µM and a TGI (HT29 colon) of 25.6 µM. It also gave a GI50 (NCI-H460 lung) of 3.76 µM, a TGI (NCI-H460 lung) of 21.2 µM and a GI50 (NCI-H23 lung) of 13.5 µM. For the same molecule, the TGI (NCI-H23 lung) was 34.5 µM, the GI50 (PC-3 prostate) was 14.6 µM and the TGI (PC-3 prostate) was > 100 µM. It also gave a GI50 (SW-620 colon) of 15.2 µM, a TGI (SW-620 colon) of 33.6 µM and a GI50 (COLO 205 colon) of 11.2 µM. For the same molecule, the TGI (COLO 205 colon) was 23.2 µM, the GI50 (T-47D breast) was 1.62 µM and the TGI (T-47D breast) was 19.2 µM. The GI50 (SF-268 CNS) was 6.64 µM, the TGI (SF-268 CNS) was 25.5 µM and the GI50 (SF-295 CNS) was 1.73 µM. For the same molecule, the TGI (SF-295 CNS) was 16.5 µM, the GI50 (CAKI-1 renal) was 13.8 µM and the TGI (CAKI-1 renal) was 26.7 µM. It also gave a GI50 (SK-MEL-5 melanoma) of 6.24 µM, a TGI (SK-MEL-5 melanoma) of 20.6 µM and a GI50 (NCI/ADR-RES ovarian) of 13.1 µM. It also gave a TGI (NCI/ADR-RES ovarian) of 51.5 µM, a GI50 (OVCAR-4 ovarian) of 12.2 µM and a TGI (OVCAR-4 ovarian) of 27 µM. For the same molecule, the GI50 (HL-60(TB) leukemia) was 22 µM, the TGI (HL-60(TB) leukemia) was > 100 µM and the GI50 (NCI-H226 lung) was 23.6 µM. For the same molecule, the TGI (NCI-H226 lung) was 71.6 µM, the GI50 (K-562 leukemia) was 3.92 µM and the TGI (K-562 leukemia) was > 100 µM. The GI50 (DU-145 prostate) was 12.8 µM, the TGI (DU-145 prostate) was 50.8 µM and the GI50 (HOP-62 NSCLC) was 5.29 µM. For the same molecule, the TGI (HOP-62 NSCLC) was 20.3 µM, the GI50 (MCF7 breast) was 5.71 µM and the TGI (MCF7 breast) was 21.9 µM. The GI50 (MDA-MB-231 breast) was 11.4 µM, the TGI (MDA-MB-231 breast) was 25.5 µM and the GI50 (M14 melanoma) was 11.4 µM. For the same molecule, the TGI (M14 melanoma) was 24.7 µM, the GI50 (RPMI-8226 leukemia) was 1.5 µM and the TGI (RPMI-8226 leukemia) was > 100 µM. It also gave a GI50 (NCI-H522 lung) of 8.86 µM, a TGI (NCI-H522 lung) of 29.9 µM and a GI50 (SK-MEL-28 melanoma) of 15.3 µM. For the same molecule, the TGI (SK-MEL-28 melanoma) was 33.9 µM, the GI50 (SK-MEL-2 melanoma) was 14.2 µM and the TGI (SK-MEL-2 melanoma) was 30.5 µM. For the same molecule, the GI50 (MDA-MB-435) was 10.4 µM, the TGI (MDA-MB-435) was 22.6 µM and the GI50 (U251 CNS) was 7.79 µM. The TGI (U251 CNS) was 20.6 µM, the GI50 (MALME-3M melanoma) was 17.2 µM and the TGI (MALME-3M melanoma) was 31.6 µM.
With CCCCCCCCCCCCCCCCCCNc1ccn(C2OC(COP(=O)(O)O)C(O)C2O)c(=O)n1 (stereo not drawn) the TGI (A498 renal) was > 100 µM, the TGI (786-0 renal) was > 100 µM and the TGI (A549 NSCLC) was > 100 µM. For the same molecule, the TGI (OVCAR-8 ovarian) was > 100 µM, the TGI (HS 578T breast) was > 100 µM and the TGI (OVCAR-5 ovarian) was > 100 µM. For the same molecule, the TGI (SNB-19 CNS) was > 100 µM, the TGI (SK-OV-3 ovarian) was > 100 µM and the TGI (IGROV1 ovarian) was > 100 µM. The TGI (OVCAR-3 ovarian) was > 100 µM, the TGI (LOX IMVI melanoma) was > 100 µM and the TGI (UACC-62 melanoma) was > 100 µM. The TGI (RXF 393 renal) was > 100 µM, the TGI (BT-549 breast) was > 100 µM and the TGI (HOP-92 NSCLC) was > 100 µM. The TGI (SN12C renal) was > 100 µM, the TGI (HCC-2998 colon) was > 100 µM and the TGI (MOLT-4 leukemia) was > 100 µM. For the same molecule, the TGI (ACHN renal) was > 100 µM, the TGI (SF-539 CNS) was > 100 µM and the TGI (EKVX NSCLC) was > 100 µM. The TGI (UACC-257 melanoma) was > 100 µM, the TGI (HCT-15 colon) was > 100 µM and the TGI (CCRF-CEM leukemia) was > 100 µM. The TGI (SNB-75 CNS) was > 100 µM, the TGI (UO-31 renal) was > 100 µM and the TGI (HCT-116 colon) was > 100 µM. For the same molecule, the TGI (KM12 colon) was > 100 µM, the TGI (TK-10 renal) was > 100 µM and the TGI (HT29 colon) was > 100 µM. The TGI (NCI-H23 lung) was > 100 µM, the TGI (PC-3 prostate) was > 100 µM and the TGI (SW-620 colon) was > 100 µM. For the same molecule, the TGI (COLO 205 colon) was > 100 µM, the TGI (T-47D breast) was > 100 µM and the TGI (SF-268 CNS) was > 100 µM. For the same molecule, the TGI (SF-295 CNS) was > 100 µM, the TGI (CAKI-1 renal) was > 100 µM and the TGI (SK-MEL-5 melanoma) was > 100 µM. For the same molecule, the TGI (NCI/ADR-RES ovarian) was > 100 µM, the TGI (OVCAR-4 ovarian) was > 100 µM and the TGI (NCI-H226 lung) was > 100 µM. For the same molecule, the TGI (K-562 leukemia) was > 100 µM, the TGI (DU-145 prostate) was > 100 µM and the TGI (HOP-62 NSCLC) was > 100 µM. The TGI (MCF7 breast) was > 100 µM, the TGI (MDA-MB-231 breast) was > 100 µM and the TGI (M14 melanoma) was > 100 µM. The TGI (RPMI-8226 leukemia) was > 100 µM, the TGI (NCI-H522 lung) was > 100 µM and the TGI (SK-MEL-28 melanoma) was > 100 µM. For the same molecule, the TGI (SK-MEL-2 melanoma) was > 100 µM, the TGI (MDA-MB-435) was > 100 µM and the TGI (U251 CNS) was > 100 µM.

— PubChem BioAssay (NCI)
